Measurements reported in patent US11771661B2, “Method of treating post-traumatic stress disorder” (ICAHN SCHOOL OF MEDICINE AT MOUNT SINAI, priority 2013, dated 2023).
“And” between values parts separate entries of the source, which are not always exact repeats. Equal values may be shown once.

Tests used:
[1] = Side effects of IV administration of ketamine; format: in vivo, human
Experimental: IV administration of ketamine can be on an as needed basis, e.g., when symptoms of PTSD appear. For IV administration, ketamine (e.g., doses of at least 0.5 mg/kg) may be administered over a period of 40 minutes. IV administration may be continued for up to 1 week, or longer. IV administration of ketamine may also be effected at least twice, at least three times, at least four times, at least five time, at least six times, at least seven times per week, and may be continued over a period of two, three, four, five, six, seven, eight, nine or 10 weeks, or more. […] Any side effects observed are typically mild, e.g., euphoria, elevated BP, increased libido, perceptual disturbances, and furthermore these effects typically abate within 80 minutes post-infusion.

[2] = test system: patients with chronic PTSD; test: Example 2: randomized, double-blind, midazolam-controlled crossover trial of IV ketamine, symptom ratings; format: in vivo, human
Source text: Patients with chronic PTSD were enrolled in a controlled study. […] Exclusion criteria included lifetime history of psychotic or bipolar disorder, current bulimia or anorexia nervosa, alcohol abuse or dependence in the previous three months, serious unstable medical illness or sleep apnea, active suicidal or homicidal ideation on presentation, or current use of any psychotropic medications. All patients underwent a physical examination and laboratory screening including routine hematologic, biochemical and urine toxicology testing, as well as an electrocardiogram to rule out unstable medical illness and active substance use. To receive the second IV infusion, a CAPS score of at least 50 was required prior to the second infusion. The Institutional Review Board at Mount Sinai approved the study, and informed consent was obtained from all study participants.
Study participants were free of concomitant psychotropic medications for two weeks prior to randomization and for the duration of the study. For each procedure day, patients were assigned to receive a single IV infusion of ketamine hydrochloride (0.5 mg/kg) or midazolam (0.045 mg/kg), administered over 40 minutes. Order of infusions (ketamine-midazolam or midazolam-ketamine) was randomly assigned and administrations were two weeks apart. […] Only the research pharmacy was aware of drug identity, and all study personnel, including investigators, anesthesiologists, raters, patients and data analysts were blinded to randomization order.
Following admission and an overnight fast, an indwelling catheter was placed in the antecubital vein of the non-dominant arm. Pulse, blood pressure, pulse-oximetry and ECG monitoring were instituted (see Murrough J et al. Antidepressant efficacy of ketamine in treatment-resistant major depression: a two-site, randomized controlled trial. The American Journal of Psychiatry. 2013 Oct. 1; 170(10):1134-42). Ratings were administered by a trained rater during the infusion and at 240 minutes after the start of the infusion. A different rater, blinded to the ratings during post-infusion on infusion, administered ratings at pre-infusion baseline, 24 hours (Day 1) post-infusion (before patients were discharged from the hospital), 48 hours (Day 2), 72 hours (Day 3), and 7 days (Day 7) post-infusion. Ratings were also administered at 10 and 13 days post-infusion, though data analyses focused on the first week post-infusion due to the expected duration of ketamine action. Patients were instructed to abstain from taking psychotropic medications and from using alcohol or substances of abuse for the duration of the trial. As described above, patients who scored ≥50 on the CAPS 2 weeks after the first infusion received an infusion of the second study drug.
The primary outcome was PTSD symptom severity at 24 hours post-infusion, assessed with the Impact of Event Scale—Revised (IES-R). Twenty-four hours post-infusion was selected as the primary endpoint, as acute sedating and other side effects were expected to have resolved, while potential symptom improvement was expected to persist at 24 hours. Secondary outcome measures included the Montgomery-Asberg Depression Rating Scale (MADRS), the Quick Inventory of Depressive Symptomatology, Self-Report (QIDS-SR), and Clinical Global Impression-Severity (CGI-S) and -Improvement (GCI-I) scales administered by a study clinician at 24 hours, 48 hours, 72 hours and 7 days post-infusion. The IES-R was also administered at 48 hours, 72 hours, and 7 days post-infusion. Additionally, the CAPS was administered 7 days post-infusion.
A mixed-model approach was employed to test effects of treatment, period, and carryover.

[3] = test system: patients with chronic PTSD; test: Example 2: side effects (PRISE, CADSS, BPRS, YMRS item 1) after IV infusion; format: in vivo, human
Experimental: General side effects and possible dissociative, psychotomimetic, and manic symptoms were measured with the Patient-Rated Inventory of Side Effects (PRISE), Clinician-Administered Dissociative States Scale (CADSS), Brief Psychiatric Rating Scale (BPRS) and Young Mania Rating Scale (YMRS) item 1 (elevated mood), respectively.
Secondary analyses also examined the effect of depression on PTSD symptoms and the interaction between treatment and depression. A mixed model approach was used to examine the effects of treatment, baseline MADRS score, and 24-hour MADRS score using only first-period data. Safety and tolerability were analyzed using descriptive statistics.

[4] = test system: treatment-resistant major depression; conditions: 0.5 mg/kg intravenous infusion over 40 minutes; cited from earlier work
[5] = IN vs IV; cited from earlier work
breakthrough pain (BTP) = conditions: cited from earlier work
[6] = by treatment group (drug given first)
[7] = individual responder patients, after first infusion
[8] = ketamine vs midazolam, cross-over 24 hours, n = 29
[9] = ketamine vs midazolam, first infusion 24 hours, n = 41
[10] = response = 50% improvement in IES-R score at 24 hours post-infusion

CNC1(c2ccccc2Cl)CCCCC1=O (centres unmarked) [ketamine, 2-(2-chlorophenyl)-2-(methylamino)-cyclohexanone]
serious adverse events caused by IV administration [1]: No serious adverse events | time by which mild side effects typically abate post-infusion [1]: ≤ 80 min | CAPS score, mean difference ketamine-midazolam ([2]; 7 days post-infusion, p-value=0.20): 8.7 | decrease in CAPS score ([2]; at 7 days, single infusion study): 27 (sd=20) | CAPS Total (Week 1), mean [2, 6]: 54.00 | CAPS Total (Week 2), mean [2, 6]: 56.21 | CGI-I (Week 1), mean [2, 6]: 3.22 | CGI-I (Week 2), mean [2, 6]: 3.15 | IES-R Total (Week 1), mean [2, 6]: 25.76 | IES-R Total (Week 2), mean [2, 6]: 25.67 | CAPS Total (Week 1) [2, 7]: 16 and 45 and 41 and 33 and 54 and 22 and 13 | CAPS Total (Week 2) [2, 7]: 11 (2×) and 25 and 28 and 19 and 44 and 45 | CGI-I (Week 1) [2, 7]: 2 (5×) and 3 | CGI-I (Week 2) [2, 7]: 2 (3×) and 3 | IES-R Total (Day 10) [2, 7]: 4 and 3 (3×) and 15 and 25.14 and 28 | IES-R Total (Week 1) [2, 7]: 1 and 8.38 and 10 and 2 and 18 and 17 and 3 | IES-R Total (Week 2) [2, 7]: 6 and 1 and 14 and 0 and 26 and 28 and 2 | IES-R, differences of least squares means estimate ([2]; ketamine vs midazolam, collapsed across 24, 48, 72 hours and seven days, first period, p=0.046): −8.32 | QIDS-SR, differences of least squares means estimate ([2]; ketamine vs midazolam, collapsed across time, first period, p=0.050): −2.73 | MADRS, differences of least squares means estimate ([2]; ketamine vs midazolam, collapsed across time, first period, p=0.052): −3.99 | CGI-I, mean difference [2, 8]: 1.2 | CGI-S, mean difference [2, 8]: 1.0 | IES-R Avoidance, mean difference [2, 8]: 4.8 | IES-R Hyperarousal, mean difference [2, 8]: 3.9 | IES-R Re-experiencing, mean difference [2, 8]: 4.0 | IES-R total, mean difference [2, 8]: 12.7 | MADRS, mean difference [2, 8]: 3.7 | QIDS, mean difference [2, 8]: 0.17 | CGI-I, mean difference [2, 9]: 0.80 | CGI-S, mean difference [2, 9]: 0.90 | IES-R Avoidance, mean difference [2, 9]: 3.3 | IES-R Hyperarousal, mean difference [2, 9]: 2.6 | IES-R Re-experiencing, mean difference [2, 9]: 2.6 | IES-R total, mean difference [2, 9]: 8.6 | MADRS, mean difference [2, 9]: 2.7 | QIDS, mean difference [2, 9]: 1.5 | IES-R_response No, Percent of total ([2]; of all 35 patients): 25.71% | IES-R_response Yes, Percent of total ([2]; of all 35 patients): 28.57% | β of treatment assignment on IES-R score at 24 hours post-infusion ([2]; period-1 analysis, 41 patients, ketamine vs midazolam, p=0.0496): 6.5 | IES-R_response No, Frequency [2, 10]: 9 | IES-R_response Yes, Frequency [2, 10]: 10 | IES-R_response No, Row Pct ([2]; share of non-responders): 45.00 Pct | IES-R_response Yes, Row Pct ([2]; share of responders): 66.67 Pct | IES-R_response No, Col Pct ([2]; share of the treatment group): 47.37 Pct | IES-R_response Yes, Col Pct (responded after infusion) ([2]; share of the treatment group, 24 hours post-infusion): 52.63% | psychotic or manic symptoms ([3]; BPRS, YMRS item 1): No emergence of significant psychotic or manic symptoms | patients requiring acute beta-blocker treatment for blood pressure elevation ([3]; during infusion, systolic >180 and/or diastolic >100): Three | time by which dissociative symptoms had resolved ([3]; from start of infusion): ≤ 120 min | time of peak of dissociative symptoms ([3]; from start of infusion): 40 min | safety and tolerability ([3]; single dose IV): safe and well-tolerated | duration of improvements in depression [4]: up to 1 week | serious adverse events [4]: no serious adverse events | time to improvements in depression post-injection [4]: ≤ 2 h | intranasal plasma levels (pain treatment) lower than intravenous ketamine studies in depression [5]: 3-4 fold | breakthrough pain vs placebo (breakthrough pain (BTP); 10-50 mg intranasal in incremental 10 mg doses every 90 seconds): lower BTP | side effects (breakthrough pain (BTP); 10-50 mg intranasal): very few side effects
